Values of other authors, collected in patent US20210127703A1, “FOOD PRODUCT USING AN IMPROVED SUGAR” (priority 2019, published 2021).

Experiments:
[1] = in vivo
[2] = system: liver microsomal drug-metabolizing enzymes; settings: in vitro; inhibiting hexobarbital metabolism in humans
[3] = transdermal; higher than for Δ8-THC
[4] = ingestion of 20 mg of THC in a chocolate cookie
[5] = after application of a dermal patch

For C=C(C)[C@@H]1CCC(C)=C[C@H]1c1c(O)cc(CCCCC)cc1O [CBD, cannabidiol], the “effect of CBD on pharmacokinetics of THC” value (CYP 2C; Hunt et al., except for a slight slowing of metabolism of 11-OH-THC to THC-COOH) is given as “not affected”, the “inhibition of hydroxylation of THC to 11-OH-THC catalyzed by CYP 2C” value (CYP 2C; oral THC alone compared to a THC and CBD preparation) is given as “only partially inhibited” and the “excretion in the feces” value [1] is given as “a large proportion of the dose is excreted unchanged in the feces”. The “inhibition of liver microsomal drug-metabolizing enzymes” value [2] was “in vitro inhibitor of liver microsomal drug-metabolizing enzymes” and the “permeability relative to Δ8-THC” value [3] was 10 fold.

In the case of CCCCCc1cc(O)c2c(c1)OC(C)(C)c1ccc(C)cc1-2 [CBN], the “permeability relative to Δ8-THC” value [3] is given as 10 fold.

In the case of CCCCCc1cc(O)c2c(c1)OC(C)(C)[C@@H]1CCC(C)=C[C@@H]21 [THC], the “time of peak THC concentration following ingestion” value [4] is listed as 1 to 5 h.

For CCCCCc1cc(O)c2c(c1)OC(C)(C)[C@@H]1CC=C(C)C[C@@H]21 [Δ8-THC], the “duration steady-state plasma concentration maintained” value [5] is listed as “at least 48 h”, the “mean steady-state plasma concentration” value [5] is listed as 4.4 ng/mL and the “time to steady-state plasma concentration” value [5] is listed as ≤ 1.4 h.
